Like-named read-outs stand apart in the source and are kept apart here.
Experiments:
[1] = test system: FGFR alteration (fusions, amplifications, or point mutations); conditions: cited from earlier work
Kato III cells = test: cells; conditions: 72 h
Description: Kato III cells were treated with bispecific compound 6 or BGJ398 at the indicated concentrations for 72 h. Cell viability was determined using Cell-Titer Glo (Promega™) according to the manufacturer's instructions. IC50 values (defined as the concentration of compound needed to reduce cell viability to 50% of the vehicle DMSO control) were estimated by using GraphPad Prism 7.0 (GraphPad Prism®).
Cell viability was determined using Cell-Titer Glo (Promega™) according to the manufacturer's instructions. IC50 values were estimated by using GraphPad Prism 7.0 (GraphPad Prism®).
Kato III cells were treated with bispecific compound 6, bispecific compound 7 or BGJ398 at the indicated concentrations for 72 h. Cell viability was determined using Cell-Titer Glo (Promega™), according to the manufacturer's instructions. IC50 values (defined as the concentration of compound needed to reduce cell viability to 50% of the vehicle DMSO control) were estimated by using GraphPad Prism 7.0 (GraphPad Prism®).

FGFR2 = test: Rescue of degrader-induced FGFR2 degradation by pretreatment, immunoblot in Kato III cells; format: cell-based; conditions: for rescue of FGFR2 degradation induced by bispecific compound 6: pretreated 2 h (10 μM BGJ398, 10 μM control-1, 0.5 M Bortezomib, 1 μM MLN4924), then 0.1 M bispecific compound 6 for 4 h; for rescue of FGFR2 degradation induced by bispecific compound 20: pretreated 2 h (10 μM FIIN2, 10 M control-1, 0.5 M Bortezomib, 1 μM MLN4924), then 1 M bispecific compound 20 for 4 h
Description: Kato III cells were pretreated with 10 μM BGJ398 (the parental compound and known FGFR1/2/3 inhibitor; available from, e.g., MedChemExpress®, Cat. No. HY-13311, Monmouth Junction, N.J.), 10 μM control-1 (VHL ligand), 0.5 M Bortezomib (a proteasome inhibitor; available from, e.g., Millipore Sigma®, Cat. No. 179324-69-7, Burlington, Mass.), and 1 μM MLN4924 (a neddylation inhibitor; available from, e.g., MedChemExpress®, Cat. No. HY-70062, Monmouth Junction, N.J.), for 2 h, and then treated with 0.1 M bispecific compound 6 for 4 h. Cells were lysed and immunoblotted as described above with antibodies to FGFR2 and β-Actin.
Kato III cells were pretreated with 10 μM FIIN2 (the parental compound and known FGFR1/2/3/4 inhibitor; available from, e.g., Selleckchem, Cat. No. S7714, Houston, Tex.), 10 M control-1 (VHL ligand), 0.5 M Bortezomib (a proteasome inhibitor; available from, e.g., Millipore Sigma, Cat. No. 179324-69-7, Burlington, Mass.), and 1 μM MLN4924 (a neddylation inhibitor; available from, e.g., MedChemExpress, Cat. No. HY-70062, Monmouth Junction, N.J.), for 2 h, and then treated with 1 M bispecific compound 20 for 4 h. Cells were lysed and immunoblotted as described above with antibodies to FGFR2 and β-Actin.

CDK9 = target: T1, CDK9 (Homo sapiens, UniProt P50750); test: CDK9 degradation by immunoblot (positive control); format: cell-based; conditions: 16 hours
T1 construct: endogenous in cells; host or cells: Kato III; CCLP1; JHH7
Description: Kato III cells were treated with 0, 0.1, 1, or 10 M of bispecific compound 6 or 0.5 M THAL-SNS-032 (a known CDK9 degrader and positive control for CDK9 degradation; available from, e.g., MedChemExpress®, Cat. No. HY-10008, Monmouth Junction, N.J.) for 16 hours. Cells were then lysed in RIPA buffer (Millipore Sigma®) containing protease/phosphatase inhibitor cocktail (Roche®). The protein concentrations were measured by bicinchoninic acid assay (BCA) analysis (Pierce™). Equal amounts of protein were resolved by 4-12% Tris-Base gels (Invitrogen™), and then transferred to the Immuno-Blot PVDF membrane (Bio-Rad®), and immunoblotted with primary antibodies against FGFR2 (cell signaling), CDK9 (cell signaling) and […] (cell signaling), and then immunoblotted with IRDye®800-labeled goat anti-rabbit IgG and IRDye®800-labeled goat anti-mouse IgG (LI-COR®) secondary antibodies. The membranes were detected on Odyssey CLx system.
CCLP1 cells were treated with 0, 0.1, 1, or 10 M of bispecific compound 6 or 0.5 μM THAL-SNS-032 for 16 hours, and then lysed and immunoblotted with antibodies to FGFR1 (cell signaling), CDK9, and β-Actin.
JHH7 cells were treated with 0, 0.1, 1, or 10 M of bispecific compound 6 or 0.5 M THAL-SNS-032 for 16 hours, and then lysed and immunoblotted with antibodies to FGFR3 (cell signaling), FGFR4 (cell signaling), CDK9, and β-Actin.

[2] = patients with advanced refractory ICC with an FGFR alteration

T1 sequence (P50750 whole entry): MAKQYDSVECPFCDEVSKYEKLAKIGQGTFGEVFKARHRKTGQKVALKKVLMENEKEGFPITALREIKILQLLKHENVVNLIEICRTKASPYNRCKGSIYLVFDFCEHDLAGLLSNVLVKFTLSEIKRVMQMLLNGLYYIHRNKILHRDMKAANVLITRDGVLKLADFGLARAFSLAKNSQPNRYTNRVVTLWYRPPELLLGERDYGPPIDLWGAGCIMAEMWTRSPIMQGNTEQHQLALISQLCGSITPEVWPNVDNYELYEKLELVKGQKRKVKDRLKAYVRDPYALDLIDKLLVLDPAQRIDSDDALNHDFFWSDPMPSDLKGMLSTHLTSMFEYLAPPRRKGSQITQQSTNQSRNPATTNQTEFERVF
T1 sequence (O60563 whole entry partner): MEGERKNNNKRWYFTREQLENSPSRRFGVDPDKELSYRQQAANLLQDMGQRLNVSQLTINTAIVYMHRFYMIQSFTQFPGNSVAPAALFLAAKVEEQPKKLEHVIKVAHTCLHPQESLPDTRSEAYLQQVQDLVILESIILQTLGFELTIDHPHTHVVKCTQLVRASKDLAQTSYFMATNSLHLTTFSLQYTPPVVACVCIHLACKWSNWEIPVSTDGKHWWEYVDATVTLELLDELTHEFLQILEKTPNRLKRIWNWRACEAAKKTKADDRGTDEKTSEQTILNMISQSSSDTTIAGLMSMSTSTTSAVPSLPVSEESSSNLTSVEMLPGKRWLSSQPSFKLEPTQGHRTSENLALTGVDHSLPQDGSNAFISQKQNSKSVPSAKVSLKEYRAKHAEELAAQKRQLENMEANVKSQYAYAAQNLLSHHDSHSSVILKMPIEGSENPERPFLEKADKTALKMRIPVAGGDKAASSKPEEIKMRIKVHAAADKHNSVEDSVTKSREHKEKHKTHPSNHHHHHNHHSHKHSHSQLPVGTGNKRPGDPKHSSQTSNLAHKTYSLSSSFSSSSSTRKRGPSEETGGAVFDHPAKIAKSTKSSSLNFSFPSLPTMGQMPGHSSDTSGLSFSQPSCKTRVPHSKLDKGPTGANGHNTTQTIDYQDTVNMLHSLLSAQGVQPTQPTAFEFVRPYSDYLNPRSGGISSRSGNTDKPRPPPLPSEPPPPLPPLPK

SMILES: CCN1CCN(c2ccc(Nc3cc(N(C)C(=O)Nc4c(Cl)c(OC)cc(OC)c4Cl)ncn3)cc2)CC1 [BGJ398]
- disease control rate (DCR; partial responses+stable disease) ([1]; FGFR2 fusions only): 83.3%
- overall response rate (ORR) ([1]; FGFR2 fusions only): 18.8%
- Median progression free survival [1, 2]: 5,8 months
- disease control rate (DCR; partial responses+stable disease) [1, 2]: 75.4%
- overall response rate (ORR) [1, 2]: 14.8%
- IC50 (Kato III cells; Homo sapiens, KATO III, read-out: IC50 (concentration needed to reduce cell viability to 50% of the vehicle DMSO control)): ~1 nM
- anti-proliferation effect (Kato III cells; Kato III cells): good anti-proliferation effect
- rescue of FGFR2 degradation induced by bispecific compound 6 (FGFR2): rescued the FGFR2 degradation

SMILES: CC(C)C[C@H](NC(=O)[C@H](Cc1ccccc1)NC(=O)c1cnccn1)B(O)O [Bortezomib]
- rescue of FGFR2 degradation induced by bispecific compound 6 (FGFR2): rescued the FGFR2 degradation
- rescue of FGFR2 degradation induced by bispecific compound 20 (FGFR2): rescued the FGFR2 degradation

SMILES: C=CC(=O)Nc1ccc(CN2C(=O)N(c3cc(OC)cc(OC)c3)Cc3cnc(Nc4ccc(N5CCN(C)CC5)cc4)nc32)cc1 [FIIN2]
- rescue of FGFR2 degradation induced by bispecific compound 20 (FGFR2): rescued the FGFR2 degradation

SMILES: NS(=O)(=O)OC[C@@H]1C[C@@H](n2ccc3c(N[C@H]4CCc5ccccc54)ncnc32)C[C@@H]1O [MLN4924]
- rescue of FGFR2 degradation induced by bispecific compound 6 (FGFR2): rescued the FGFR2 degradation
- rescue of FGFR2 degradation induced by bispecific compound 20 (FGFR2): rescued the FGFR2 degradation

SMILES: CC(C)(C)c1cnc(CSc2cnc(NC(=O)C3CCN(CC(=O)NCCOCCOCCOCCNc4cccc5c4C(=O)N(C4CCC(=O)NC4=O)C5=O)CC3)s2)o1 (stereo not drawn) [THAL-SNS-032]
- CDK9 degradation (CDK9; CCLP1 cells, 0.5 μM): induced CDK9 degradation
- CDK9 degradation (CDK9; JHH7 cells, 0.5 µM): induces CDK9 degradation
- CDK9 degradation (CDK9; Kato III cells, 0.5 µM): induced CDK9 degradation

SMILES: CC(=O)N[C@H](C(=O)N1C[C@H](O)C[C@H]1C(=O)N[C@@H](C)c1ccc(-c2scnc2C)cc1)C(C)(C)C [control-1]
- rescue of FGFR2 degradation induced by bispecific compound 6 (FGFR2): rescued the FGFR2 degradation
- rescue of FGFR2 degradation induced by bispecific compound 20 (FGFR2): rescued the FGFR2 degradation

Source: US20220175722A1, “DEGRADERS OF FIBROBLAST GROWTH FACTOR RECEPTOR 2 (FGFR2)” (DANA-FARBER CANCER INSTITUTE, INC., priority 2019, published 2022)
